Source: paper PMC1989143, “An Expanded Set of Amino Acid Analogs for the Ribosomal Translation of Unnatural Peptides” (PLoS ONE, 2007)
Each block holds one compound with its values, some of them ahead of it.

Tests used:
Assay in all cases: tRNA aminoacylation competition assay, MALDI-TOF MS
Format in all cases: biochemical
HisRS = target: T1, HisRS (Escherichia coli, UniProt P60906); conditions: 15000 µM; 15 µM natural His (Table 3), 6 mM ATP, 17 mM MgCl2, E. coli total tRNA, pH 7.4, 37 °C; competitive
T1 construct: gene hisS; His-tagged, recombinant, purified
T1 sequence (P60906 2-424): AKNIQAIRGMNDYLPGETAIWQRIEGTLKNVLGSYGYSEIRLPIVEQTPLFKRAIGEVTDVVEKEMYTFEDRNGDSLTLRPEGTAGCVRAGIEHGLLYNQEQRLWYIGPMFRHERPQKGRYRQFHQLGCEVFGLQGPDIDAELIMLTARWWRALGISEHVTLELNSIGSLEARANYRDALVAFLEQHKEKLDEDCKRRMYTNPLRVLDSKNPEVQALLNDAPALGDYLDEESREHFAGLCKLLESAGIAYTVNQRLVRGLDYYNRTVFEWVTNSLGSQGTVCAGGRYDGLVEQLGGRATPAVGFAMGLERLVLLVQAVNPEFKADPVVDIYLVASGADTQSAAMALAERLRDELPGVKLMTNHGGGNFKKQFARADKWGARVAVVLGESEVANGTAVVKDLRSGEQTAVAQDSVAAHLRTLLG
From the text: tRNA aminoacylation competition assay, MALDI-TOF MS on HisRS

TyrRS = target: T2, TyrRS (Escherichia coli, UniProt P0AGJ9); conditions: 5000 µM; 5 µM natural Tyr (Table 3), 6 mM ATP, 17 mM MgCl2, E. coli total tRNA, pH 7.4, 37 °C; competitive
T2 construct: gene tyrS; His-tagged, recombinant, purified
From the text: tRNA aminoacylation competition assay, MALDI-TOF MS on TyrRS

GluRS = target: T3, GluRS (Escherichia coli, UniProt P04805); conditions: 10000 µM; 10 µM natural Glu (Table 3), 6 mM ATP, 17 mM MgCl2, E. coli total tRNA, pH 7.4, 37 °C; competitive
T3 construct: gene gltX; His-tagged, recombinant, purified
T3 sequence (P04805 1-471): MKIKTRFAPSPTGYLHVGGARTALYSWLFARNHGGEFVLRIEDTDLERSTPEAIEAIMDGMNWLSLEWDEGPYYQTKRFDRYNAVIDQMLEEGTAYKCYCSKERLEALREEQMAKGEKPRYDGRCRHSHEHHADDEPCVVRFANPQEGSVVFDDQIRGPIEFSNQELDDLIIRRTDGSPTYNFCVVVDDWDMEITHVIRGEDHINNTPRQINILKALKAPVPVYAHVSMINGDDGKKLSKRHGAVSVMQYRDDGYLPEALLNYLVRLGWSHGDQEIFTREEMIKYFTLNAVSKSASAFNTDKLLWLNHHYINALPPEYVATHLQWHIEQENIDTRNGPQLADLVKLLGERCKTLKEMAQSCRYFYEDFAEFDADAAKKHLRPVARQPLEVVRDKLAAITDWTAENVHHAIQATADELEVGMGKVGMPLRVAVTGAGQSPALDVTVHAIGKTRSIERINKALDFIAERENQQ
From the text: tRNA aminoacylation competition assay, MALDI-TOF MS on GluRS

TrpRS = target: T4, TrpRS (Escherichia coli, UniProt P00954); conditions: 30000 µM; 30 µM natural Trp (Table 3), 6 mM ATP, 17 mM MgCl2, E. coli total tRNA, pH 7.4, 37 °C; competitive
T4 construct: gene trpS
From the text: tRNA aminoacylation competition assay, MALDI-TOF MS on TrpRS

AspRS = target: T5, AspRS (Escherichia coli, UniProt P21889); conditions: 50000 µM; 50 µM natural Asp (Table 3), 6 mM ATP, 17 mM MgCl2, E. coli total tRNA, pH 7.4, 37 °C; competitive
T5 construct: gene aspS; His-tagged, recombinant, purified
From the text: tRNA aminoacylation competition assay, MALDI-TOF MS on AspRS

ArgRS = target: T6, ArgRS (Escherichia coli, UniProt P11875); conditions: 20000 µM; 20 µM natural Arg (Table 3), 6 mM ATP, 17 mM MgCl2, E. coli total tRNA, pH 7.4, 37 °C; competitive
T6 construct: gene argS; His-tagged, recombinant, purified
T6 sequence (P11875 1-577): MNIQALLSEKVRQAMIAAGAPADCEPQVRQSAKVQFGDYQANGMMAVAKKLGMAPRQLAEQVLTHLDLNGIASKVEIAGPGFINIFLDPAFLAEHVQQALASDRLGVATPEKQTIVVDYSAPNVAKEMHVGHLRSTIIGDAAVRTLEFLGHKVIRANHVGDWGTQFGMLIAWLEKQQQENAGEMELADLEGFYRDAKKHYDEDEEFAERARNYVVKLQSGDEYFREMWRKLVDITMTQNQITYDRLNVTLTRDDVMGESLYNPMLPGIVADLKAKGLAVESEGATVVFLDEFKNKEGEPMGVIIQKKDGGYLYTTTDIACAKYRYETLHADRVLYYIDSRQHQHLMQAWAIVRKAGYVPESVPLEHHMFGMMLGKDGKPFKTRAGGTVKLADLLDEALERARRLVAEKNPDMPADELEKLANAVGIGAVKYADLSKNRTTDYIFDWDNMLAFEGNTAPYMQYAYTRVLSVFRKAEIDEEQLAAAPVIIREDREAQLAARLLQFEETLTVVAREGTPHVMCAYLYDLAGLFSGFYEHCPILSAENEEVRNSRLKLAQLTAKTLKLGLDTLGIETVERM
From the text: tRNA aminoacylation competition assay, MALDI-TOF MS on ArgRS

MetRS = target: T7, MetRS (Escherichia coli, UniProt P00959); conditions: 50000 µM; 50 µM natural Met (Table 3), 6 mM ATP, 17 mM MgCl2, E. coli total tRNA, pH 7.4, 37 °C; competitive
T7 construct: gene metG; His-tagged, recombinant, purified
T7 sequence (P00959 2-677): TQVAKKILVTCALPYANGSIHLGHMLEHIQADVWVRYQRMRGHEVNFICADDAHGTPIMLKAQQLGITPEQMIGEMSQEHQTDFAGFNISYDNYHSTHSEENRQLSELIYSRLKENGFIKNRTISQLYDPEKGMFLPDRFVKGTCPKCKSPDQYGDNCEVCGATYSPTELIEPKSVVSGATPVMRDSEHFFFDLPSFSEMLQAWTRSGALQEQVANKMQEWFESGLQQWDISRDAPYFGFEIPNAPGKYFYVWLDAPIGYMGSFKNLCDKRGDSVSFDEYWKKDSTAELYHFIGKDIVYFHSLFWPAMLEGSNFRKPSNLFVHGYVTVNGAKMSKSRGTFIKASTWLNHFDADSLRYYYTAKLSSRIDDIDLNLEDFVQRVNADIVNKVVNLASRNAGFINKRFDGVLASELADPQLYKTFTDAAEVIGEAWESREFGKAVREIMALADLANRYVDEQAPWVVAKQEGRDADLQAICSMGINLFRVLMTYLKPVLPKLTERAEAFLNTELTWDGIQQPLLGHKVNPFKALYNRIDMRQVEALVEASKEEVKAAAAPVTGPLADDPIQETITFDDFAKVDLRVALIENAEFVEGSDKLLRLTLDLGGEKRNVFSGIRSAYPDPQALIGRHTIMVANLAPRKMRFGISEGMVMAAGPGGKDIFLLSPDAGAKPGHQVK
From the text: tRNA aminoacylation competition assay, MALDI-TOF MS on MetRS

ValRS = target: T8, ValRS (Escherichia coli, UniProt P07118); conditions: 50000 µM; 50 µM natural Val (Table 3), 6 mM ATP, 17 mM MgCl2, E. coli total tRNA, pH 7.4, 37 °C; competitive
T8 construct: gene valS; His-tagged, recombinant, purified
T8 sequence (P07118 1-951): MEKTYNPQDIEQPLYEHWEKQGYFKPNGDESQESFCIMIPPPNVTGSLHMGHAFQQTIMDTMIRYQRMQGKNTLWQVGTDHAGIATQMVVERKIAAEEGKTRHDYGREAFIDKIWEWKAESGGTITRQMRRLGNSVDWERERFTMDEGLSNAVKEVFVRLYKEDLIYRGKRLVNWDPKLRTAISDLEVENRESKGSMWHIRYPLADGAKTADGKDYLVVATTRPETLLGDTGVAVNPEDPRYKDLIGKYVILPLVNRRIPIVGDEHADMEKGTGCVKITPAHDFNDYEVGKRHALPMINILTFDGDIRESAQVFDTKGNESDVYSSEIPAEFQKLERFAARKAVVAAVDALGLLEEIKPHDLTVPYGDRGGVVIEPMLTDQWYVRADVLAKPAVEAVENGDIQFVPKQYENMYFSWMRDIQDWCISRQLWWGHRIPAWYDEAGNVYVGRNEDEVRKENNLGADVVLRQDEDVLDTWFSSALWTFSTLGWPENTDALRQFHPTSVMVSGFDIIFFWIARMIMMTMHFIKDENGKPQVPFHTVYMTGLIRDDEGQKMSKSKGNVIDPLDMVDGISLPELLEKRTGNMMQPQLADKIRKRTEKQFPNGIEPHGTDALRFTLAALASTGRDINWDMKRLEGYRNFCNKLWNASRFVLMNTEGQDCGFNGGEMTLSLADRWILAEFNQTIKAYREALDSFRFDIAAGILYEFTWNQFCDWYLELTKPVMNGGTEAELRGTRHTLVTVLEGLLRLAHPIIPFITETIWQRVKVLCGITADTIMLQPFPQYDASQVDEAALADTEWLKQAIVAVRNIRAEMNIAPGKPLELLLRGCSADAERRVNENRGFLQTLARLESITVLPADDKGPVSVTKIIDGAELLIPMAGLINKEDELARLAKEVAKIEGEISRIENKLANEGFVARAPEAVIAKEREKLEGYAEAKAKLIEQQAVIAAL
From the text: tRNA aminoacylation competition assay, MALDI-TOF MS on ValRS

LeuRS = target: T9, LeuRS (Escherichia coli, UniProt P07813); conditions: 30000 µM; 30 µM natural Leu (Table 3), 6 mM ATP, 17 mM MgCl2, E. coli total tRNA, pH 7.4, 37 °C; competitive
T9 construct: gene leuS; His-tagged, recombinant, purified; wild-type
From the text: tRNA aminoacylation competition assay, MALDI-TOF MS on LeuRS

ProRS = target: T10, ProRS (Escherichia coli, UniProt P16659); conditions: 50000 µM; 50 µM natural Pro (Table 3), 6 mM ATP, 17 mM MgCl2, E. coli total tRNA, pH 7.4, 37 °C; competitive
T10 construct: gene proS; His-tagged, recombinant, purified
T10 sequence (P16659 1-572): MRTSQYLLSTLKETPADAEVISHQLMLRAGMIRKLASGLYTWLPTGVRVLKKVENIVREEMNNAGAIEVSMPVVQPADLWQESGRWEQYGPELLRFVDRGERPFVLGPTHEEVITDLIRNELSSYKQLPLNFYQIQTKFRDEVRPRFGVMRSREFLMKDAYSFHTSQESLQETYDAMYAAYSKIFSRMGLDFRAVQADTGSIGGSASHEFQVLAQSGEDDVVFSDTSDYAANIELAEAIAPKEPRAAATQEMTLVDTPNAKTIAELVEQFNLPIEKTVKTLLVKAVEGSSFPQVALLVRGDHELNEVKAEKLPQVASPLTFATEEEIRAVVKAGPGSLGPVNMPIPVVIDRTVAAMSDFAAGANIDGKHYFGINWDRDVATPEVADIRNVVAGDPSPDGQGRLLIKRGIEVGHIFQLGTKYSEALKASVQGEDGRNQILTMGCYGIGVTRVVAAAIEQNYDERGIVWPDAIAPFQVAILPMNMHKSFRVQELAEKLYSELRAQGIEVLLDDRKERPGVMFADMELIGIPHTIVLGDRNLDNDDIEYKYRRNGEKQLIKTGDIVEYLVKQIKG
From the text: tRNA aminoacylation competition assay, MALDI-TOF MS on ProRS

- % Inhibition ^b (AspRS): 59 (range 0.5) %
SMILES: N[C@H](C(=O)O)[C@H](O)C(=O)O [C6, L-threo-β-hydroxy aspartic acid]

- % Inhibition ^b (MetRS): 82 (range 3.3) %
SMILES: C#CCCC(N)C(=O)O (stereo not drawn) [N1, 2-amino hex-5-ynoic acid]

- % Inhibition ^b (MetRS): 73 (range 0.5) %
SMILES: CCCC[C@H](N)C(=O)O [N3, L-norleucine]

- % Inhibition ^b (MetRS): 97 (range 0.5) %
SMILES: [N-]=[N+]=NCC[C@H](N)C(=O)O [N6]

- % Inhibition ^b (ValRS): 80 (range 0.4) %
SMILES: CC(C)(C)C(N)C(=O)O (stereo not drawn) [N13, t-butyl-glycine]

- % Inhibition ^b (LeuRS): 83 (range 16.7) %
SMILES: CC(CC(N)C(=O)O)C(F)(F)F (stereo not drawn) [N17, 5′,5′,5′-trifluoro leucine]

- % Inhibition ^b (LeuRS): 52 (range 22.2) %
SMILES: CC(C)(C)C[C@H](N)C(=O)O [N18, β-t-butyl-alanine]

- % Inhibition ^b (ProRS): 67 (range 12.6) %
SMILES: O=C(O)[C@@H]1C=CCN1 [N23, 3,4-dehydro proline]

Second part, the compound before the results:

SMILES: N[C@@H](Cc1nccs1)C(=O)O [A1, β-2-thiazolyl-alanine]
- % Inhibition ^b (HisRS): 20 (range 0.4) %

SMILES: NC(Cc1ccc(O)c(F)c1)C(=O)O (stereo not drawn) [A3, 3-fluoro tyrosine]
- % Inhibition ^b (TyrRS): 46 (range 23.0) %

SMILES: N[C@@H](Cn1oc(=O)[nH]c1=O)C(=O)O [A15, L-quisqualic acid]
- % Inhibition ^b (GluRS): 52 (range 1.2) %

SMILES: N[C@@H](Cc1csc2ccccc12)C(=O)O [A23, 3-(thianaphthen-3-yl)-L-alanine]
- % Inhibition ^b (TrpRS): 19 (range 2.7) %

SMILES: N=C(N)NOCC[C@H](N)C(=O)O [C10, L-canavanine]
- % Inhibition ^b (ArgRS): 82 (range 10.3) %

SMILES: O=C(O)[C@@H]1CCN1 [N24, L-azetidine-2-carboxylic acid]
- % Inhibition ^b (ProRS): 28 (range 10.0) %

SMILES: NC1(C(=O)O)CCCC1 [α1, 1-amino cyclopentanoic acid]
- % Inhibition ^b (ValRS): 59 (range 3.3) %
